The values below come from US20240245702A1, “Inhibition of Lysine Demethylase 1 (Lsd1) Induces Differentiation of Hair Cells” (Massachusetts Eye and Ear Infirmary, priority 2018, published 2024).

Assay [1] deals with Hes1. As to the kind of experiment: qRT-PCR of Hes1 in adult cochlea after noise damage and drug treatment. Format: in vivo, mouse. As to conditions: 3 days after drug treatment of noise-damaged animals. As to the method: (§1) RNA extraction and PCR. For the LCPs, the organoids were treated with Cell Recovery Solution for at 1 hour and TrypleE for 20 minutes, then frozen in RLT buffer. RNA extractions were performed using the RNeasy Micro Kit (QIAGEN) and cDNA generated using ImProm-II Reverse Transcription Kit (Promega). TaqMan Real-Time PCR was performed in triplicates using the TaqMan Gene Expression Master Mix (ThermoFisher Scientific) on a StepOne Real-Time PCR machine (ThermoFisher Scientific). Ordinary One-way Anova was used to assess statistical significance. A minimum of three biologically distinct samples were analyzed for each condition.
(§2) Round window drug administration. We used four-week-old mice weighing 12-15 g. The animals were anesthetized with ketamine ([…], intraperitoneally [i.p.]) and xylazine ([…], i.p.) prior to surgery. An incision was made posterior to the pinna near the external meatus to expose the otic bulla and subsequently the round window niche. pargyline and CHIR99021 dissolved in DMSO were diluted in polyethylene glycol 400 (Sigma) to obtain final concentrations of 0.1 and 5 mM. This solution (total volume 1 ul) was injected into the round window niche of the left ear. Polyethylene glycol 400 with 10% DMSO was injected into the right ear as a control. Gelfoam was placed on the niche to maintain the solution, and the wound was closed. […]
Background: Quantitative PCR measures a nucleic acid by following its amplification.

For assay [2], the system named is Atoh1. As to the kind of experiment: qRT-PCR of Atoh1 in adult cochlea after noise damage and drug treatment. Type of assay: in vivo, mouse. As to conditions: deaf adult cochlea relative to the control, 3 days after treatment, p<0.05. The method, then: as §1, §2
For assay [3], the system named is active β-catenin. As to the kind of experiment: Western blot for active β-catenin in differentiating LCPs. Format: cell-based, mouse. As to conditions: western blot after 4 days of differentiation, relative to untreated control. As to the method: Western blot analysis. For protein collection, cells were washed twice with PBS and then lysed by lysis buffer (20 mM HEPES, 400 mM NaCl, 1 mM EDTA, 0.1% NP-40 and 10% Glycerol) supplemented with HALT protease and phosphatase inhibitors (Thermo Fisher Scientific, Waltham, MA). Lysates were then centrifuged at 13,000 g for 15 min at 4° C., and each supernatant was collected. Protein concentration was determined using the Pierce BCA Protein Assay Kit (Pierce Biotechnology, Rockford, IL). Proteins within each lysate were separated by SDS-PAGE (Bio-Rad Laboratories, Inc., Hercules, CA) and transferred to polyvinylidene difluoride membranes. After incubation with primary antibody, membranes were washed with Tris-buffered saline with Tween 20 and exposed to an appropriate horseradish peroxidase-conjugated secondary antibody (Santa Cruz Biotechnology, Santa Cruz, CA); immunoblot signals were detected with Pierce ECL Western blotting substrate or ECL plus (Thermo Fisher Scientific, Waltham, MA).
Active canonical Wnt signaling is facilitated by the nuclear translocation of β-catenin, which binds with transcription factors of the Tcf/Lef family to activate transcription. To further validate our RNA-sequencing data, we proceeded to examine the levels of active β-catenin using western blot after pargyline treatment. […] We also analyzed Wnt activity in the treated cells using a Tcf/Lef reporter assay.
On the technique in general: In western blotting, separated proteins are transferred to a membrane and probed.

The subject of assay [4] is Axin2. As to the kind of experiment: qRT-PCR of Axin2 in adult cochlea after noise damage and drug treatment. As to conditions: 3 days after drug treatment of noise-damaged animals, p<0.05. Type of assay: in vivo, mouse. The method, then: as §1, §2
The subject of assay [5] is Lgr5-expressing cochlear progenitors cells (LCPs). As to the kind of experiment: Proliferation of Lgr5+ cochlear progenitors (LCPs) in organoid culture. Format: cell-based, mouse. As to conditions: first 10 days in culture, Lgr5-nGFP mice cells, combined with CHIR99021. As to the method:
Isolation and expansion of inner ear Lgr5+ cells. A recently published protocol was used to derive organoids from inner ear stem cells [also referred to as Lgr5+ cochlear progenitors (LCPs) (McLean et al., 2017). Briefly, the organ of Corti was dissected from neonatal mice (postnatal days 2-5) in Hank's balanced salt solution and treated with Cell Recovery Solution (Corning) for 1 hour. The cochlear epithelium was then peeled from the underlying mesenchyme, collected and treated with TrypleE for 20 minutes at 37° C. The single cells were mechanically triturated, filtered ([…] cell strainer) and suspended in a Matrigel (Corning) dome for 3D culture. The cells were seeded in a 24-well plate, specifically at one cochlea per well of a 24-well plate.
For the drug screening experiments, the expanded cells were passaged into a 96 well plate to test varying drug combinations. All experiments were done in triplicate at minimum. Atoh1-nGFP cells were quantified after 10 days in culture. The cell colonies were incubated in Cell Recovery Solution for 1 hour and dissociated into single cells using TrypleE. The total cell number and percentage of GFP+ cells were quantified using fluorescence activated cell sorting (FACS).
We screened a collection of Lsd1 inhibitors over the first 10 days in culture (FIGS. 9A and 9B) to examine their effect on proliferation of LCPs (FIGS. 9C and 9D). […]

For `Cc1c[nH]c(-c2cnc(NCCNc3ccc(C#N)cn3)nc2-c2ccc(Cl)cc2Cl)n1` [CHIR99021], in assay [1], the “Hes1 mRNA level” value was “reduced levels”. In addition, the “Atoh1 mRNA level” value in assay [2] is given as “significantly elevated”. In addition, the “active β-catenin, fold change” value in assay [3] worked out at 2.95 fold. The “Axin2 mRNA level” value in assay [4] is “significantly higher levels”.
On to `CCCC(CCC)C(=O)O` [valproic acid], for which the “proliferation of Lgr5 cells (LCP cell division)” value in assay [5] was determined as 63%.
